Laboratory results published in patent publication US8524291B2, “Anti-obesity product and its method of preparation” (Chongquing Institute of Ecological Materia Medica Co. Ltd., priority 2006, dated 2013).

Assay: 40-day study in ob/ob mice on high fat diet: body weight and fat, metabolic parameters, liver indicators
Type: in vivo, C57 black ob/ob mice
Conditions: day 43
Procedure: Forty C57 black ob/ob mice were allocated to five groups of eight for study over 40 days as follows:
High fat diet—no treatment;
High fat diet—100 mg/kg/OD PYN22;
High fat diet—300 mg/kg/OD PYN22; • High fat diet—3 mg/kg/OD Rosiglitazone (positive control).
Mice were weighed twice per week and food intake measured daily throughout the study. Any laxative effects of treatments were visually examined and recorded.
Oral glucose tolerance tests were conducted on Day 7, Day 21 and Day 35.
Energy expenditure was measured at Day 14.
Fasting plasma insulin and lipids were measured on Days 7, 21 and 35.
Three days before sacrifice, 100 ul blood samples were taken from all animals to provide plasma glucose, insulin, free fatty acid, triglycerides, cholesterol and HDL-cholesterol.
At sacrifice, body mass and fat mass were calculated; the same parameters were also calculated for liver, heart and white adipose tissues.

CN(CCOc1ccc(CC2SC(=O)NC2=O)cc1)c1ccccn1 (centres unmarked) [Rosiglitazone]
actual liver weight (FIG. 11C): no effect | relative (% body weight) liver weight (FIG. 11D): no effect
